The values that follow come from patent US5641805A, “Topical ophthalmic formulations for treating allergic eye diseases” (Alcon Laboratories, Inc., priority 1995, dated 1997).

By inhibition is commonly meant the drop in the measured response relative to a control, in per cent.

The test system of assay [1] is Human Conjunctival Tissue Mast Cells. In words: Compound effect on histamine release from human conjunctival tissue mast cells upon anti-human IgE challenge. The conditions noted are these: for inhibition at 500 µM: * p < 0.05 Dunnett's, isomers not significantly different (p > 0.05 Studentized Range), read-out: Inhibition (%) of in-vitro histamine release, isomer comparison; for inhibition of human conjunctival mast cell degranulation: statement on Table 1. The format is cell-based. The method, then: The inhibitory effects of reported anti-allergic, mast cell stabilizing drugs on mast cells obtained from human conjunctiva (the target cells for topical ophthalmic drug preparations claimed useful in treating allergic conjunctivitis) were tested according to the following experimental method. Human conjunctival tissues obtained from organ/tissue donors were weighed and transferred to petri dishes containing RPMI 1640 culture medium supplemented with heat inactivated fetal bovine serum (20%, v/v), L-glutamine (2 mM), penicillin (100 units/ml), streptomycin (100 μg/ml), amphotericin B (2.5 μg/ml) and HEPES (10 mM) and equilibrated overnight at 37° C. (5% CO2).
Post equilibration, tissues were placed in Tyrode's buffer (in mM: 137 NaCl, 2.7 KCl, 0.35 Na H2 PO4, 1.8 CaCl2, 0.98 MgCl2, 11.9 Na HCO3, 5.5 glucose) containing 0.1% gelatin (TGCM) and incubated with 200 U each of collagenase (Type IV) and hyaluronidase (Type I-S) per gram of tissue for 30 minutes at 37° C. Following enzyme digestion, tissues were washed with an equal volume of TGCM over Nitex® filter cloth (Tetko, Briarcliff Manor, N.Y.). Intact tissues were placed in TGCM for further enzymatic digestions.
The flitrate obtained from each digestion was centrifuged (825 g, 7 minutes) and pelleted cells were resuspended in calcium/magnesium free Tyrode's buffer (TG). Pooled cells from all digestions were centrifuged (825 g, 30 minutes) over a […] Percoll® cushion. Mast cell enriched cell pellets were resuspended and washed in TG buffer. Viability and number of mast cells were determined by vital dye exclusion and toluidine blue 0 staining of the harvested cell suspensions. Mast cell containing preparations were placed in supplemented RPMI 1640 culture medium and allowed to equilibrate at 37° C. prior to challenge with anti-human IgE (goat derived IgG antibody).
Cell suspensions containing 5000 mast cells were added to TGCM containing tubes and challenged with anti-human IgE. The final volume of each reaction tube was 1.0 mL. Tubes were incubated at 37° C. for 15 minutes post challenge. The release reaction was terminated by centrifugation (500 g, 7 minutes). Supernatants were collected and stored (-20° C.) until mediator analyses.
Initially, supernatants were analyzed for histamine content by both the automated fluorimetric method described by Siraganian, "An Automated Continuous Flow System for the Extraction and Fluorometric Analysis of Histamine," Anal. Biochem., Vol. 57, 383-94 (1974), and a commercially available radioimmunoassay (RIA) system (AMAC, Inc., Westbrook, Me.). Results from these assays were positively correlated (r=0.999): therefore, the remainder of histamine analyses were performed by RIA.
Each experiment included an anti-human IgE (plus vehicle) positive release control, a spontaneous/vehicle release and a total histamine release control. Total histamine release was determined by treatment with Triton X-100® (0.1%). The experiments also included a non-specific goat IgG control. Test compounds are administered to the mast cell cultures either 1 or 15 minutes before stimulation with anti-human IgE. Inhibition of histamine release resulting from challenge of drug treated mast cells was determined by direct comparison with histamine release from vehicle treated, anti-IgE challenged mast cells using Dunnett's t-test (Dunnett, "A multiple comparison procedure for comparing treatments with a control, " J. Amer. Stat Assoc., Vol. 50, 1096-1121 (1955)).
Dunnett's t-test, is a statistical test which compares multiple treatment groups with one control group. In the assay described above, histamine released from drug treated mast cells are compared to histamine released from the anti-human IgE plus vehicle treated mast cells which serve as the positive control. Statistically significant inhibition is determined using this procedure. The probability level of 0.05 is accepted as the level of significance in biomedical research. […]

Another assay concerns rat conjunctiva. The conditions noted are these: 0.1 % strength.
The test system of another assay is rodent mast cell. Particulars: cited from earlier work.
Assay [2] concerns mast cells obtained from bronchoalveolar lavage fluid. Particulars: 100 μM; cited from earlier work.
For another assay, the system named is human skin mast cells. Particulars: cited from earlier work.
[3] abbreviates: Homo sapiens, Mast cell, 0.25 h, treatment 15 min.
Setting [4] is: Homo sapiens, Mast cell, 0.25 h, treatment 15 min, * p < 0.05 Dunnett's t-test.
Setting [5] is: Homo sapiens, Mast cell, 1 min, treatment 1 min.

Source text for rat conjunctiva: This assay indicates whether a topically applied compound effectively prevents or decreases the local allergic response in the conjunctiva. This assay allows an assessment of bioavailability following topical dosing. Briefly, male Sprague Dawley rats (6/group) were passively sensitized by subconjunctival injection of a rat serum containing IgE specific for ovalbumin (OA). Twenty-four hours post sensitization, test compound prepared in saline (0.9% NaCl) or saline vehicle was applied topically onto the sensitized eye. Twenty (20) minutes after dosing, rats were challenged intravenously via the lateral tail vein with 1.0 ml of a solution containing OA (1.0 mg/ml) and Evans Blue dye (2.5 mg/ml). Thirty (30) minutes post antigen challenge, animals were killed, skin was reflected, and the size of the resulting wheal and the intensity of the extravasated dye were determined.

Take `CN(C)CC/C=C1/c2ccccc2COc2ccc(CC(=O)O)cc21` [Compound A (cis), Z-11-(3-dimethylaminopropylidene)-6,11-dihydrodibenz[b,e]oxepin-2-acetic acid]: the inhibition at 500 µM in assay [1] (setting [3]) worked out at 29.7%. Further, the “inhibition of human conjunctival mast cell degranulation” value in assay [1] was “concentration-dependent inhibition of mast cell degranulation”.
Take `CN(C)CC/C=C1\c2ccccc2COc2ccc(CC(=O)O)cc21` [Compound A (trans), E-11-(3-dimethylaminopropylidene)-6,11-dihydrodibenz[b,e]oxepin-2-acetic acid]: the inhibition at 500 µM in assay [1] (setting [3]) is 26.2%.
On to `CN(C)CC/C=C1/c2ccccc2COc2ccc(CC(=O)O)cc21` [Compound A, 11-(3-dimethylaminopropylidene)-6,11-dihydrodibenz[b,e]oxepin-2-acetic acid], for which, in assay [1] (setting [3]), the inhibition at 30 µM is -3.9%. In assay [1] (setting [4]), the inhibition at 100 µM is 13%, the inhibition at 300 µM worked out at 29.6% and the inhibition at 1000 µM came out at 66.7%. Also, in assay [1] (Homo sapiens, Mast cell, 0.25 h, 600 μM, treatment 15 min, * p < 0.05 Dunnett's t-test), the inhibition at 600 µM stood at 47.5%. Also, in assay [1] (Mast cell, 2000 μM, treatment 15 min before anti-human IgE, * p < 0.05 Dunnett's t-test), the inhibition at 2000 µM is 92.6%.
As to `CN(C)CC/C=C1/c2ccccc2COc2ccc(C(=O)O)cc21` [Compound B, (Z)11-(3-Dimethylaminopropylidene)-6,11-dihydrodibenz[b,e]oxepin2-carboxylic acid], the “% Change (permeability score)” value with rat conjunctiva is listed as -55%.
In the case of `CN(C)CCC=C1c2ccccc2COc2ccc(/C=C\C(=O)O)cc21` [Compound C, (Z)11-(3-Dimethylaminopropylidene)-6,11-dihydrodibenz[b,e]oxepin2-acrylic acid], in the assay with rat conjunctiva, the “% Change (permeability score)” value is recorded as -53%.
For the compound `O=C(O)c1cc(=O)c2c(OCC(O)COc3cccc4oc(C(=O)O)cc(=O)c34)cccc2o1` [Cromolyn sodium], in the assay on rodent mast cell, the “inhibition of rodent mast cell degranulation” value is reported as “inhibit rodent mast cell degranulation”. Moreover, in assay [1] (setting [5]), the inhibition at 10 µM is -0.9%, the inhibition at 30 µM was 0.1%, the inhibition at 100 µM amounted to 1.2% and the inhibition at 300 µM is -1.8%. Besides, in assay [1] (setting [5]), the inhibition at 1000 µM was -9.4%. In assay [1] (setting [3]), the inhibition at 10 µM worked out at 10.6% and the inhibition at 30 µM turned out to be 1.8%. Moreover, in assay [1] (setting [4]), the inhibition at 100 µM is -1.2%, the inhibition at 300 µM is -6.9% and the inhibition at 1000 µM was -15.4%. For the same compound, in assay [1], the “inhibition of human conjunctival mast cell degranulation” value is “failed to significantly inhibit human conjunctival mast cell degranulation”. Further, the “inhibition of mast cells from bronchoalveolar lavage fluid” value in assay [2] is given as “inhibited”. The “inhibition of histamine release from human skin mast cells” value in the assay on human skin mast cells is reported as “not inhibited at all”.
For the compound `CCCc1c2oc(C(=O)O)cc(=O)c2cc2c(=O)cc(C(=O)O)n(CC)c12` [Nedocromil sodium], in assay [1] (setting [5]), the inhibition at 0.1 µM was determined as 17.4%, the inhibition at 0.3 µM came out at 8.8%, the inhibition at 1 µM came to 4.8% and the inhibition at 3 µM turned out to be 0.8%. In assay [1] (setting [5]), the inhibition at 10 µM was -6.5%, the inhibition at 30 µM was -0.9%, the inhibition at 100 µM worked out at 6.7% and the inhibition at 300 µM was 4%. Further, the inhibition at 1000 µM in assay [1] (setting [5]) was -1.1%. Besides, in assay [1] (setting [3]), the inhibition at 0.1 µM stood at 8.7%, the inhibition at 0.3 µM was 3.7%, the inhibition at 1 µM was determined as 10.7% and the inhibition at 3 µM came out at 13.2%. In assay [1] (setting [3]), the inhibition at 10 µM was 9.2% and the inhibition at 30 µM was found to be 15.2%. In addition, in assay [1] (setting [4]), the inhibition at 100 µM worked out at 28.2%, the inhibition at 300 µM was 11.3% and the inhibition at 1000 µM turned out to be 7.2%. Further, the “inhibition of human conjunctival mast cell degranulation” value in assay [1] is “failed to significantly inhibit human conjunctival mast cell degranulation”.
